{"source": "patent EP0343306A1", "about": "“Liquid pharmaceutical preparation based on theophylline with a retarding effect, and process for producing it” (CARULLA VEKAR, S.A., priority 1988, dated 1989)", "origin": "cited, not measured here", "conditions": "in vivo", "data": [{"smiles": "Cn1c(=O)c2[nH]cnc2n(C)c1=O", "note": "[theophylline]", "values": [{"measurement": "plasmatic levels associated with a significant incidence of side effects", "value": "above 20 mcg/ml"}]}]}
